Experimental data from ChEMBL document CHEMBL1125820, “Structure-activity relationship of mutagenic aromatic and heteroaromatic nitro compounds. Correlation with molecular orbital energies and hydrophobicity” (J Med Chem, 1991).

Columns and labels:
[1] = Partition coefficient (logP); settings: octanol/water
[2] = test system: Salmonella typhimurium; experiment: Mutagenic activity in an Ames test on Salmonella Typhimurium TA98; Activity is log of revertants/nmol; format: functional, Salmonella enterica subsp. enterica serovar Typhimurium; parameters: scale not given here

Compound | logP [1] | Activity [2]
O=[N+]([O-])c1cc2cccnc2c2ncccc12 | 1.84 | 0.59
O=C(/C=C/c1ccc([N+](=O)[O-])cc1)c1ccc([N+](=O)[O-])cc1 | 2.73 | -1.42
O=[N+]([O-])c1ccc(F)cc1 | 1.8 | -0.23
O=[N+]([O-])c1c2ccccc2c2ccc3cccc4ccc1c2c43 | 5.87 | 1.64
Nc1ccc(-c2cccc([N+](=O)[O-])c2)cc1 | 2.68 | -1.52
O=[N+]([O-])c1ccc2c(c1)CCc1ccccc1-2 | 4.53 | 1.99
O=C/C=C/c1ccc([N+](=O)[O-])o1 | 0.96 | 1.97
Nc1ccccc1-c1cccc([N+](=O)[O-])c1 | 2.68 | -1.52
C=Cc1ccc([N+](=O)[O-])cc1 | 2.61 | -1.3
O=[N+]([O-])c1cccc2ncccc12 | 1.86 | -0.96
O=[N+]([O-])c1ccc2ccc3c([N+](=O)[O-])cc([N+](=O)[O-])c4ccc1c2c34 | 4.18 | 4.99
O=[N+]([O-])c1ccc2cccc3c2c1CC3 | 3.81 | 1
O=[N+]([O-])c1ccc2[nH]ccc2c1 | 2.13 | 0.57
O=[N+]([O-])c1ccc2c(c1)Cc1cccc([N+](=O)[O-])c1-2 | 3.71 | 3.2
O=[N+]([O-])c1c(Cl)c(Cl)c2c(c1Cl)Oc1cc(Cl)c(Cl)cc1O2 | 7.84 | -0.33
O=[N+]([O-])c1cc(F)ccc1F | 1.89 | -0.79
O=[N+]([O-])c1ccc2c(c1)Cc1cc(Cl)ccc1-2 | 4.68 | 3.11
O=C(/C=C/c1ccc([N+](=O)[O-])o1)N/N=C/c1ccc([N+](=O)[O-])o1 | 2.79 | 2.45
Nc1ccc([N+](=O)[O-])cc1O | 1.36 | -2.4
O=[N+]([O-])c1ccc2ccc3cc4c(c5ccc1c2c35)CCCC4 | 6.57 | 0.9
O=[N+]([O-])c1c2c3c(ccc4cccc(c43)CC2)c2ccccc12 | 6.16 | 0.3
O=[N+]([O-])c1ccc2c(c1)Cc1cc(O)ccc1-2 | 3.43 | 1.68
CC(=O)Oc1ccc2c(c1)Cc1cc([N+](=O)[O-])ccc1-2 | 3.46 | 1.86

Compound | logP [1] | Activity [2]
Cc1c([N+](=O)[O-])ccc2ccccc12 | 3.43 | -0.7
O=[N+]([O-])c1cccc2ccccc12 | 3.19 | -0.61
O=[N+]([O-])c1ccc2c3c(ccc([N+](=O)[O-])c13)-c1ccccc1-2 | 4.44 | 3.62
O=[N+]([O-])c1cc2ccccc2c2ccccc12 | 4.23 | 2.25
O=[N+]([O-])c1cc2c3c(cc([N+](=O)[O-])cc3c1)-c1ccccc1-2 | 4.44 | 2.32
O=[N+]([O-])C1=CC2Nc3ccc([N+](=O)[O-])cc3NC2C=C1 (stereo not given) | 2.29 | 4.34
CN1Cc2cccc([N+](=O)[O-])c2N1 | 1.77 | 0.23
O=[N+]([O-])c1ccc2c(c1)Oc1ccccc1O2 | 4.73 | 1.79
CN1Cc2ccc([N+](=O)[O-])cc2N1 | 1.77 | -0.41
O=[N+]([O-])c1ccc2c3c(cccc13)C=C2 | 3.36 | 1.91
O=[N+]([O-])c1cc2c3c(cccc3c1)-c1ccccc1-2 | 4.69 | 3.01
O=[N+]([O-])c1ccc2cc3ccccc3cc2c1 | 4.23 | 2.95
O=[N+]([O-])C1=Cc2c3c1cccc3cc1ccc3ccccc3c21 | 5.07 | 0.26
O=[N+]([O-])c1cc(O)c2ccc3cccc4ccc1c2c34 | 4.66 | 3.87
CC(=O)Nc1ccc2c(c1)Cc1cc([N+](=O)[O-])ccc1-2 | 3.08 | 2.85
O=[N+]([O-])c1cc2c([N+](=O)[O-])ccc3c2c(c1[N+](=O)[O-])-c1ccccc1-3 | 4.18 | 3.56
O=[N+]([O-])C1=CC2Nc3cc([N+](=O)[O-])ccc3NC2C=C1 (stereo not given) | 2.29 | 2.75
O=[N+]([O-])c1ccc(F)c([N+](=O)[O-])c1 | 1.49 | 1.2
O=[N+]([O-])c1ccc(F)c(Cl)c1 | 2.74 | -1.21
Nc1ccc2c(c1)Cc1cc([N+](=O)[O-])ccc1-2 | 3.06 | 1.56
N#Cc1ccc2c(c1)Cc1cc([N+](=O)[O-])ccc1-2 | 3.4 | 2.51
O=[N+]([O-])c1ccc2oc3ccccc3c2c1 | 3.83 | 1.64
O=[N+]([O-])c1cc2c3c(ccc4cc([N+](=O)[O-])cc(c43)CC2)c1 | 4.73 | 4.25

Compound | logP [1] | Activity [2]
Cc1ccc2cccc([N+](=O)[O-])c2n1 | 1.99 | -2.7
O=[N+]([O-])c1cc2ccccc2c2ccc3ccccc3c12 | 5.41 | -0.22
O=[N+]([O-])c1c2ccccc2cc2c1ccc1ccccc12 | 5.41 | -0.52
O=[N+]([O-])C1=Cc2c3ccc4ccccc4c3cc3cccc1c23 | 5.07 | 0.86
O=[N+]([O-])c1ccc2c(c1)NCC2 | 1.92 | -0.48
O=[N+]([O-])c1cccc(Cl)c1Cl | 3.05 | -1.51
O=C(/C=C/c1ccccc1)c1ccc([N+](=O)[O-])cc1 | 2.83 | -1.15
O=[N+]([O-])c1ccc2ccc3c4c(cc5ccc1c2c53)C=CC(O)C4O (stereo not given) | 3.01 | 2.8
O=[N+]([O-])C1=Cc2cccc3c2c1cc1cc2ccccc2cc13 | 5.07 | 0.92
O=[N+]([O-])c1ccc(F)cc1[N+](=O)[O-] | 1.89 | -1.84
O=[N+]([O-])c1ccc(-c2cccc([N+](=O)[O-])c2)cc1 | 3.52 | 0.23
Nc1cccc(-c2ccccc2[N+](=O)[O-])c1 | 2.68 | -2
O=[N+]([O-])c1ccc2c3c(cccc13)-c1ccccc1-2 | 4.69 | 3.67
O=[N+]([O-])c1ccc2c(c1)CC=C2 | 2.74 | 0.96
O=[N+]([O-])c1ccc2ccc3c(O)ccc4ccc1c2c43 | 4.19 | 1.34
Nc1ccccc1-c1ccc([N+](=O)[O-])cc1 | 2.68 | -1.7
O=[N+]([O-])c1ccc2c(c1)Cc1cc(I)ccc1-2 | 5.09 | 2.97
O=[N+]([O-])c1cc2c3c(c([N+](=O)[O-])c([N+](=O)[O-])cc3c1)-c1ccccc1-2 | 4.18 | 3.16
O=[N+]([O-])c1c(Cl)cc2c(c1Cl)Oc1cc(Cl)c(Cl)cc1O2 | 7.13 | -1.4
O=[N+]([O-])c1ccc2c(c1)-c1ccc([N+](=O)[O-])c3cccc-2c13 | 4.44 | 5.02
O=[N+]([O-])c1nc2ccccc2[nH]1 | 1.59 | 0
O=[N+]([O-])c1cccc2cnccc12 | 1.65 | -1.55
O=[N+]([O-])C1=Cc2cc3cc4ccccc4cc3c3cccc1c23 | 5.07 | 0.67

Compound | logP [1] | Activity [2]
O=[N+]([O-])c1cccc2c1-c1cccc3c([N+](=O)[O-])ccc-2c13 | 4.44 | 5.09
O=[N+]([O-])c1cc([N+](=O)[O-])c2c3c(c4cccc5ccc1c2c54)CCCC3 | 6.01 | 2.41
Nc1cccc(-c2cccc([N+](=O)[O-])c2)c1 | 2.68 | -1.7
O=C(Nc1ccc2c(c1)Cc1cc([N+](=O)[O-])ccc1-2)C(F)(F)F | 4.23 | 2.81
Cn1c([N+](=O)[O-])nc2ccccc21 | 1.58 | 2.54
O=[N+]([O-])c1ccc2ccc3c4c(cc5ccc1c2c53)CCCC4 | 6.57 | 0.3
Cn1ncc2cccc([N+](=O)[O-])c21 | 1.77 | -1
O=[N+]([O-])c1cc(Cl)ccc1Cl | 2.9 | -1.54
O=[N+]([O-])C1=Cc2ccc3ccc4cccc5cc1c2c3c45 | 4.35 | 0.77
O=[N+]([O-])C1Cc2cccc3cccc1c23 (stereo not given) | 2.72 | 1.77
Nc1ccc([N+](=O)[O-])cc1N | 0.88 | 0.63
O=[N+]([O-])c1ccc2c(c1)-c1cccc3cccc-2c13 | 4.69 | 4.05
COc1ccc2c(c1)Cc1cc([N+](=O)[O-])ccc1-2 | 3.95 | 2.79
O=[N+]([O-])c1cc2c3c(cc([N+](=O)[O-])c([N+](=O)[O-])c3c1)-c1ccccc1-2 | 4.18 | 3.44
O=[N+]([O-])c1ccc2c3c(c4cccc5ccc1c2c54)CCCC3 | 6.26 | 0.78
O=[N+]([O-])c1ccc2cn[nH]c2c1 | 2.06 | 0.66
O=[N+]([O-])c1ccc2ccc3cccc4ccc1c2c34 [1-NITROPYRENE] | 4.69 | 2.78
COc1ccccc1[N+](=O)[O-] [2-NITROANISOLE] | 1.73 | -2.7
O=[N+]([O-])c1ccc2c(c1)Cc1ccccc1-2 [2-NITROFLUORENE] | 3.37 | 1.43
Nc1ccc(Cl)cc1[N+](=O)[O-] [4-CHLORO-2-NITROANILINE] | 2.72 | -2
O=C1Nc2ccc([N+](=O)[O-])cc2C1=O [5-NITROISATIN] | 0.47 | -0.94
